Measured values from article PMC6467542 (Bioorganic & Medicinal Chemistry, 2019).
Converted amounts (≈) assume the structure as drawn.

Legend:
M. tb (strain H37Rv) [1] = assay: MIC90 against replicating M.tb (MABA); type: cell-based, Mycobacterium tuberculosis; settings: aerobic (replicating) conditions, 90% inhibition of growth; for MIC90: Mycobacterium tuberculosis
M. tb (strain H37Rv) [2] = assay: MIC90 against non-replicating M.tb (LORA); type: cell-based, Mycobacterium tuberculosis; settings: for MIC90: Mycobacterium tuberculosis, H37RV, read-out: MIC90 LORA
Experimental: In these assays, 1 is a potent inhibitor, with MICs of 0.08 and 0.12 µg/mL, respectively. Replacement of the naphthalene C-unit of 1 with various pyridyls produced analogues of considerably lower lipophilicity, with clogP values ranging from 6.89 down to 2.98.

in vitro [3] = settings: human, microsomes
in vitro [4] = settings: mouse, microsomes
hERG potassium channel = hERG potassium channel (Homo sapiens, UniProt Q12809); assay: Inhibition of hERG potassium current (patch clamp electrophysiology); settings: for hERG % inhibition at 3 µM: manual or (less accurate) QPatch assay
[5] = mouse, in vivo

hERG potassium channel, sequence (Q12809 whole entry): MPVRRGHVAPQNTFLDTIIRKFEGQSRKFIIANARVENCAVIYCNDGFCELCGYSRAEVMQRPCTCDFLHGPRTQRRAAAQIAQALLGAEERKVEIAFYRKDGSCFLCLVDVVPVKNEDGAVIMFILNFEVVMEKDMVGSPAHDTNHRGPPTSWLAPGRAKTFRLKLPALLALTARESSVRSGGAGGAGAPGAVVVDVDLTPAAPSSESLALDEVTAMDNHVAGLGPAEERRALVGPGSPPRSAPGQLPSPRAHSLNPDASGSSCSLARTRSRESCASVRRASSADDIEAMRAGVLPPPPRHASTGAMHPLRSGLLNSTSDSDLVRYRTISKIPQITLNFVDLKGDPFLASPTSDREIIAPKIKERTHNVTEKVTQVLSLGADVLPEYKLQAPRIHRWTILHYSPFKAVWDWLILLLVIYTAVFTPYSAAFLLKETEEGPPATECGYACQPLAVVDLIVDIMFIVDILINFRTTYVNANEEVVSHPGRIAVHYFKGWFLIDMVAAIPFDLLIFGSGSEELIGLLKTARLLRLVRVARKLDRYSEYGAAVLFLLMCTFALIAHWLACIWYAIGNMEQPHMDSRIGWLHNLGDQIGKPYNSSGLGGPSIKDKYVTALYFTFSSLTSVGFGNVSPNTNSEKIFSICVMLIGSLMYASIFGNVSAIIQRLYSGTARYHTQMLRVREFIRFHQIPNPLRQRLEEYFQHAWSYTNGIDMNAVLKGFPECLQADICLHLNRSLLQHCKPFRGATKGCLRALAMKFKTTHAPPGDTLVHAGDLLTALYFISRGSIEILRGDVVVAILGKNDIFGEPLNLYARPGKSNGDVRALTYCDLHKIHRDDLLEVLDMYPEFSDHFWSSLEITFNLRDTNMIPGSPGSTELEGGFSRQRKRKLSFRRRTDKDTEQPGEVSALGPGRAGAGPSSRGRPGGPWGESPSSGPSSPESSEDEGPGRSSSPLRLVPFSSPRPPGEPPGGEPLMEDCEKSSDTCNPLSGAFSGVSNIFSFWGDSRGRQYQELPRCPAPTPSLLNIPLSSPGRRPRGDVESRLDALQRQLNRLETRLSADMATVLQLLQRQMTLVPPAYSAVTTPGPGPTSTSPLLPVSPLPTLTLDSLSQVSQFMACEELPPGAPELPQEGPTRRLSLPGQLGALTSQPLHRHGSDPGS

With “1-(7-bromo-3-methoxynaphthalen-2-yl)-1-(2,3-dimethoxyphenyl)-4-(dimethylamino)-2-(2,6-dimethylpyridin-4-yl)butan-2-ol [Compound 56]” the “MIC90 MABA” value (M. tb (strain H37Rv) [1]) was 0.04 µg/mL and the “MIC90 LORA” value (M. tb (strain H37Rv) [2]; M.tb H37Rv, non-replicating conditions, 90% inhibition of growth) was 0.07 µg/mL.
Work on COc1cccc(C(c2cc3cc(Br)ccc3nc2OC)C(O)(CCN(C)C)c2cccc(C)n2)c1OC (centres unmarked) [Compound 2] yielded an MIC90 (M. tb (strain H37Rv) [1]) of 0.4 µg/mL (≈ 0.689 µM) and an MIC90 (M. tb (strain H37Rv) [2]) of 0.13 µg/mL (≈ 0.224 µM).
Work on COc1cccc(C(c2cc3cc(C#N)ccc3nc2OC)C(O)(CCN(C)C)c2cccc(C)n2)c1OC (centres unmarked) [Compound 3] yielded an MIC90 (M. tb (strain H37Rv) [1]) of 4.1 µg/mL (≈ 7.79 µM) and an MIC90 (M. tb (strain H37Rv) [2]) of 1.9 µg/mL (≈ 3.61 µM).
For COc1cccc(C(c2cc3cc(Br)ccc3nc2OC)C(O)(CCN(C)C)c2cccc(C)n2)c1F (centres unmarked) [Compound 4], the MIC90 (M. tb (strain H37Rv) [1]) was 0.29 µg/mL (≈ 0.51 µM), the MIC90 (M. tb (strain H37Rv) [2]) was 2 µg/mL (≈ 3.52 µM) and the microsomal CLint (in vitro [3]) was 10 µL/min/mg. For the same molecule, the microsomal CLint (in vitro [4]) was 39 µL/min/mg and the “hERG % inhibition at 3 µM” value (hERG potassium channel) was 34%/3.
In the case of COc1cccc(C(c2cc3cc(C#N)ccc3nc2OC)C(O)(CCN(C)C)c2cccc(C)n2)c1F (centres unmarked) [Compound 5], the MIC90 (M. tb (strain H37Rv) [1]) is reported as 1.1 µg/mL (≈ 2.14 µM) and the MIC90 (M. tb (strain H37Rv) [2]) is reported as 1.8 µg/mL (≈ 3.5 µM).
In the case of COc1cccc(C(c2cc3cc(Br)ccc3nc2OC)C(O)(CCN(C)C)c2cc(C)ccn2)c1F (centres unmarked) [Compound 6], the MIC90 (M. tb (strain H37Rv) [1]) is reported as 0.6 µg/mL (≈ 1.06 µM) and the MIC90 (M. tb (strain H37Rv) [2]) is reported as 2.1 µg/mL (≈ 3.69 µM).
With COc1cccc(C(c2cc3cc(Br)ccc3nc2OC)C(O)(CCN(C)C)c2ncccc2C)c1F (centres unmarked) [Compound 7] the MIC90 (M. tb (strain H37Rv) [1]) was 0.19 µg/mL (≈ 0.334 µM) and the MIC90 (M. tb (strain H37Rv) [2]) was 0.4 µg/mL (≈ 0.704 µM).
Work on COc1cccc(C(c2cc3cc(C#N)ccc3nc2OC)C(O)(CCN(C)C)c2ncccc2C)c1F (centres unmarked) [Compound 8] yielded an MIC90 (M. tb (strain H37Rv) [1]) of 3 µg/mL (≈ 5.83 µM) and an MIC90 (M. tb (strain H37Rv) [2]) of 3.5 µg/mL (≈ 6.8 µM).
With COc1cccc(C(c2cc3cc(Br)ccc3nc2OC)C(O)(CCN(C)C)c2cc(C)cc(C)n2)c1OC (centres unmarked) [Compound 9] the MIC90 (M. tb (strain H37Rv) [1]) was 0.28 µg/mL (≈ 0.471 µM) and the MIC90 (M. tb (strain H37Rv) [2]) was 0.3 µg/mL (≈ 0.505 µM).
Work on COc1cccc(C(c2cc3cc(C#N)ccc3nc2OC)C(O)(CCN(C)C)c2cc(C)cc(C)n2)c1OC (centres unmarked) [Compound 10] yielded an MIC90 (M. tb (strain H37Rv) [1]) of 0.54 µg/mL (≈ 0.999 µM) and an MIC90 (M. tb (strain H37Rv) [2]) of 0.62 µg/mL (≈ 1.15 µM).
COc1cccc(C(c2cc3cc(Br)ccc3nc2OC)C(O)(CCN(C)C)c2cc(C)cc(C)n2)c1F (centres unmarked) [Compound 11] gave an MIC90 (M. tb (strain H37Rv) [1]) of 0.14 µg/mL (≈ 0.24 µM) and an MIC90 (M. tb (strain H37Rv) [2]) of 0.11 µg/mL (≈ 0.189 µM).
For COc1cccc(C(c2cc3cc(C#N)ccc3nc2OC)C(O)(CCN(C)C)c2cc(C)cc(C)n2)c1F (centres unmarked) [Compound 12], the MIC90 (M. tb (strain H37Rv) [1]) was 2.3 µg/mL (≈ 4.35 µM) and the MIC90 (M. tb (strain H37Rv) [2]) was 2.8 µg/mL (≈ 5.3 µM).
With COc1cccc(C(c2cc3cc(Br)ccc3nc2OC)C(O)(CCN(C)C)c2ncc(C)cc2C)c1F (centres unmarked) [Compound 13] the MIC90 (M. tb (strain H37Rv) [1]) was 0.3 µg/mL (≈ 0.515 µM) and the MIC90 (M. tb (strain H37Rv) [2]) was 0.46 µg/mL (≈ 0.79 µM).
Work on COc1cccc(C(O)(CCN(C)C)C(c2cccc(C)c2)c2cc3cc(C#N)ccc3nc2OC)n1 (centres unmarked) [Compound 14] yielded an MIC90 (M. tb (strain H37Rv) [1]) of 0.6 µg/mL (≈ 1.21 µM) and an MIC90 (M. tb (strain H37Rv) [2]) of 0.29 µg/mL (≈ 0.584 µM).
Work on COc1cccc(C(O)(CCN(C)C)C(c2cc3cc(C#N)ccc3nc2OC)c2cccc3c2OCO3)n1 (centres unmarked) [Compound 16] yielded an MIC90 (M. tb (strain H37Rv) [1]) of 1.2 µg/mL (≈ 2.28 µM).
For COc1ccnc(C(O)(CCN(C)C)C(c2cc3cc(Br)ccc3nc2OC)c2cccc(OC)c2F)c1 (centres unmarked) [Compound 17], the MIC90 (M. tb (strain H37Rv) [1]) was 1.2 µg/mL (≈ 2.05 µM) and the MIC90 (M. tb (strain H37Rv) [2]) was 0.61 µg/mL (≈ 1.04 µM).
For COc1ccnc(C(O)(CCN(C)C)C(c2cc3cc(C#N)ccc3nc2OC)c2cccc(OC)c2F)c1 (centres unmarked) [Compound 18], the MIC90 (M. tb (strain H37Rv) [1]) was 2.3 µg/mL (≈ 4.33 µM) and the MIC90 (M. tb (strain H37Rv) [2]) was 2.2 µg/mL (≈ 4.15 µM).
COc1cccc(C(c2cc3cc(Br)ccc3nc2OC)C(O)(CCN(C)C)c2cccnc2C)c1OC (centres unmarked) [Compound 20] showed an MIC90 (M. tb (strain H37Rv) [1]) of 0.3 µg/mL (≈ 0.517 µM) and an MIC90 (M. tb (strain H37Rv) [2]) of 0.59 µg/mL (≈ 1.02 µM).
With COc1nc2ccc(Br)cc2cc1C(c1cccc2c1OCO2)C(O)(CCN(C)C)c1cccnc1C (centres unmarked) [Compound 21] the MIC90 (M. tb (strain H37Rv) [1]) was 0.45 µg/mL (≈ 0.797 µM), the MIC90 (M. tb (strain H37Rv) [2]) was 0.56 µg/mL (≈ 0.992 µM) and the “AUC: exposure, AUCinf” value [5] was 820 ng·h/mL. For the same molecule, the “IV Cl: IV clearance” value ([5]; iv) was 44 mL/min/kg, the “Vz: IV apparent volume of distribution during terminal phase” value ([5]; iv) was 21 L/kg and the “F: oral bioavailability” value ([5]; po) was 19%. The microsomal CLint (in vitro [3]) was 71 µL/min/mg, the microsomal CLint (in vitro [4]) was 51 µL/min/mg and the “hERG % inhibition at 3 µM” value (hERG potassium channel) was 13%/3.
With COc1cccc(C(c2cc3cc(C#N)ccc3nc2OC)C(O)(CCN(C)C)c2ccc(C)nc2)c1F (centres unmarked) [Compound 23] the MIC90 (M. tb (strain H37Rv) [1]) was 4.7 µg/mL (≈ 9.13 µM) and the MIC90 (M. tb (strain H37Rv) [2]) was over 5 µg/mL.
For COc1cccc(C(c2cc3cc(Br)ccc3nc2OC)C(O)(CCN(C)C)c2ccc(C)nc2)c1OC (centres unmarked) [Compound 24], the MIC90 (M. tb (strain H37Rv) [1]) was 0.6 µg/mL (≈ 1.03 µM) and the MIC90 (M. tb (strain H37Rv) [2]) was 0.51 µg/mL (≈ 0.879 µM).
COc1cccc(C(c2cc3cc(C#N)ccc3nc2OC)C(O)(CCN(C)C)c2ccc(C)nc2)c1OC (centres unmarked) [Compound 25] showed an MIC90 (M. tb (strain H37Rv) [1]) of over 5 µg/mL.
COc1nc2ccc(Br)cc2cc1C(c1cccc(F)c1)C(O)(CCN(C)C)c1cncc(C)c1 (centres unmarked) [Compound 26] showed an MIC90 (M. tb (strain H37Rv) [1]) of 0.28 µg/mL (≈ 0.52 µM) and an MIC90 (M. tb (strain H37Rv) [2]) of 0.08 µg/mL (≈ 0.149 µM).
For COc1nc2ccc(C#N)cc2cc1C(c1cccc(F)c1)C(O)(CCN(C)C)c1cncc(C)c1 (centres unmarked) [Compound 27], the MIC90 (M. tb (strain H37Rv) [1]) was 1.2 µg/mL (≈ 2.48 µM), the MIC90 (M. tb (strain H37Rv) [2]) was 0.98 µg/mL (≈ 2.02 µM) and the microsomal CLint (in vitro [3]) was 122 µL/min/mg. For the same molecule, the microsomal CLint (in vitro [4]) was 249 µL/min/mg and the “hERG % inhibition at 1 µM” value (hERG potassium channel; 1 µM, manual assay) was 42%/1.
